pIC50: −log10 of the molar value.
Experiment: Ca2+ Flux Assay: GÎ±15 HEK293 cells stably expressing rat mGlu2 were plated in black-walled, clear-bottomed, poly-D-lysine coated 384-well plates in 20 Î¼L of assay medium (DMEM containing 10% dialyzed FBS, 20 mM HEPES, and 1 mM sodium pyruvate) at a density of 12K cells/well. The cells were grown overnight at 37° C. in the presence of 5% CO2. The next day, medium was removed and the cells incubated with 20 Î¼L of 2.3 Î¼M Fluo-4, AM prepared as a 2.3 mM stock in DMSO and mixed in a 1:1 ratio with 10% (w/v) pluronic acid F-127 and diluted in assay buffer (Hank's balanced salt solution, 20 mM HEPES, and 2.5 mM probenecid) for 45 minutes at 37° C. Dye was removed, 20 Î¼L of assay buffer was added, and the plate was incubated for 5 minutes at room temperature.

SMILES	pIC50
C[C@@H]1CN(CCCOc2cnc(C(N)=O)cc2-c2ccc(F)cc2)C[C@H](C)O1	< 5.00
NC(=O)c1cc(-c2ccc(F)cc2)c(OCCOc2ccccc2F)cn1	5.70
C[C@@H]1CN(CCOc2cnc(C(N)=O)cc2-c2ccc(F)cc2)C[C@H](C)O1	< 5.00
C[C@@H]1CN(CCOc2cnc(C#N)cc2-c2ccc(F)cc2)C[C@H](C)O1	< 4.52
Cn1cc(-c2cc(C(N)=O)ncc2OCc2ccc(C(F)(F)F)nc2)cn1	< 5.00

Reference: ChEMBL document CHEMBL5727525, “4,5-substituted picolinamide and picolinonitrile metabotropic glutamate receptor 2 negative allosteric modulators” (2020)
